In patent US5030012A, “Pyroelectric calorimeter” (The United States of America as represented by the …, priority 1990, dated 1991):
pKd: −log10 of the molar value.

Tests used:
[1] = system: dark-adapted bullfrog retinas (rods); assay: Pyroelectric calorimetry and transretinal voltage of flash-stimulated dark-adapted retinas; type: cell-based, bullfrog (R. catesbiana)
Procedure: Dark-adapted bullfrog (R. catesbiana) retinas, removed under infrared illumination, were stored for 10 min to 1 hr in an oxygenated bath containing (in mM) Na^+ : 100, K^+ : 2.7, Ca^++ : 1.4, Mg^++ : 0.5, phosphate: 0.5, HEPES: 10, glucose: 11, EDTA: 0.01, pH 7.1. Cl^- was the main anion. Disks 6.3 mm. across were cut from a retina and attached by their vitreal surfaces to 25 μm. thick nylon mesh (Small Parts, Ltd., Miami, Fla.) disks of the same diameter.
Before use, each disk was soaked for 5 min in a medium containing 10 mM glutamate and 5 mM cysteine to suppress electrical responses from all retinal cells except the rods, cones and glial Muller cells. Using an infrared viewer, the disks were placed on the detector with receptor layer down and excess fluid was blotted away. Flowing moist oxygen replaced the atmosphere every 2 m.
6 μs flashes of spectral width 70 nm. centered at 500, 550 or 640 nm. from a Xenon flash tube were attenuated by a circular graded wedge and fed via a light pipe whose end was projected to a 6 mm circle at the retina. A computerized stepping motor turned the wedge so that flashes of varying intensity could be quickly delivered. The light input at the retina was measured with a silicon photovoltaic diode (International Light, Inc., Newburyport, Mass.). Exposures of the OS were calculated for a rod density in the retinal mosaic of 1.76×10^6 cm^-2. Cone and green rod pigments were neglected and rod porphyropsin was lumped with rhodopsin. Assuming the quantum efficiency of rhodopsin photoisomerization to be 0.6 and its molar absorbance at 550 nm to be 2.0×10^4 M^-1 cm^-1, its isomerization cross section ZR was 4.6×10^-17 cm^2.
In retinas incubated in glutamate Ringer containing […] and a ql of 1-2 μK followed by steady cooling lasting for more than 20 s. or until the dark current resumed. A second flash while the dark current was suppressed (as judged by the absence of change in Vr) gave no ql and no change in rl. In 30 experiments, Vr responses, whose amplitudes corresponded to dark currents of 20-50 pA/rod, were accompanied by ql bursts of 0.8 to 2 μK (mean ±s.e.e.: 1.09±0.05, n=24) while rl varied from -2 to -5 μKs^-1.
ql was unchanged by several agents that suppressed the dark current and changed rl. In this regard, the effects of flashes causing 180 PI/rod on retinal temperature and transretinal voltage were studied with an average of 2-4 trials with 60 s intervals between flashes, during which ql recovered. 30 mM ca^++ in the incubation fluid reduced Vr sixfold and changed rl 's sign while ql remained […] (n=4) μK. […] Nevertheless, a 180 PI/OS flash produced a ql of 1.6±0.1 (n=3) μK and rl of 4 μK/s.

[2] = target: cGMP-induced cationic conductance of rod outer segment membrane patches; details: cited from earlier work

CC(C)Cn1c(=O)n(C)c(=O)c2[nH]cnc21 [IBMX]
Vr (transretinal voltage response) ([1]; 500 IBMX, 180 PI/rod): suppressed | ql (fast heat burst) ([1]; 500 IBMX, 180 PI/rod): suppressed | Vr (transretinal voltage response) ([1]; 500 IBMX, tenfold brighter flashes): slow Vr waves | ql (delayed heat) ([1]; 500 IBMX, tenfold brighter flashes, n=6): 2.1±0.1 μK

Nc1nc2c(ncn2[C@@H]2O[C@@H]3COP(=O)(O)O[C@H]3[C@H]2O)c(=O)[nH]1 [cGMP]
pKd ([2]; membrane patch conductance vs free [cGMP], various studies, read-out: dissociation constant Kc): 4.38 to 5.00 | concentration at which the cationic conductance of outer segment membranes increases rapidly and reversibly ([2]; outer segment membranes): > 5 µM

c1c[nH]cn1 [imidazole]
ql (fast heat burst) ([1]; 20 mM imidazole in incubation medium, n=3): 2.4±0.4 μK

C[C@@H]1O[C@@H](O[C@H]2C[C@@H](O)[C@]3(CO)[C@H]4[C@H](O)C[C@]5(C)[C@@H](C6=CC(=O)OC6)CC[C@]5(O)[C@@H]4CC[C@]3(O)C2)[C@H](O)[C@H](O)[C@H]1O [ouabain]
Vr (transretinal voltage response) ([1]; 50 μM ouabain, 10 m. incubation): no Vr | rl (steady heat flux) ([1]; 50 μM ouabain, 180 PI/OS flash): 4 μK/s | ql (fast heat burst) ([1]; 50 μM ouabain, 180 PI/OS flash, n=3): 1.6±0.1 μK
